Values joined by “and” are separate entries in the source; they are usually repeats but may differ in a detail not shown here. Equal entries are not always repeated. Results filed as inconclusive are left out.
Test system: BDF1 mice, colon carcinoma 38 sc, T/C %
Assay: NCI In Vivo Anticancer Drug Screen. Data for tumor model Colon Carcinoma 38 (subcutaneous) in B6D2F1 (BDF1) mice
Outline: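 T/C readout: treated group (T) measurement over vehicle control group (C) measurement. Endpoint is survival or tumor size in mice bearing a transplanted tumor.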

Compound: COc1cccc2c1C(=O)c1c(O)c3c(c(O)c1C2=O)C[C@@](O)(C(=O)CO)C[C@@H]3OC1CC(N)C(O)C(C)O1 (some centres not stated)
- T/C (endpoint: median survival time, dose: 2.7 mg/kg/injection, schedule: Q07DX003 (iv), vehicle: saline, higher = longer survival): 104 % of control
- T/C (endpoint: median survival time, dose: 3.3 mg/kg/injection, schedule: Q07DX002 (iv), vehicle: saline, higher = longer survival): 112 % of control and 108 % of control
- T/C (endpoint: median survival time, dose: 3.3 mg/kg/injection, schedule: Q07DX004 (iv), vehicle: saline, higher = longer survival): 118 % of control
- T/C (endpoint: median survival time, dose: 4.1 mg/kg/injection, schedule: Q07DX003 (iv), vehicle: saline, higher = longer survival): 100 % of control
- T/C (endpoint: median survival time, dose: 4.5 mg/kg/injection, schedule: Q07DX002 (sc), vehicle: saline, higher = longer survival): 79 % of control
- T/C (endpoint: median survival time, dose: 5.2 mg/kg/injection, schedule: Q07DX002 (iv), vehicle: saline, higher = longer survival): 174 % of control
- T/C (endpoint: median survival time, dose: 5.4 mg/kg/injection, schedule: Q07DX002 (iv), vehicle: saline, higher = longer survival): 109 % of control and 124 % of control
- T/C (endpoint: median survival time, dose: 5.4 mg/kg/injection, schedule: Q07DX004 (iv), vehicle: saline, higher = longer survival): 155 % of control
- T/C (endpoint: median survival time, dose: 6.0 mg/kg/injection, schedule: Q07DX003 (iv), vehicle: saline, higher = longer survival): 157 % of control
- T/C (endpoint: median survival time, dose: 7.3 mg/kg/injection, schedule: Q07DX002 (sc), vehicle: saline, higher = longer survival): 104 % of control
- T/C (endpoint: median survival time, dose: 8.5 mg/kg/injection, schedule: Q07DX002 (sc), vehicle: saline, higher = longer survival): 166 % of control
- T/C (endpoint: median survival time, dose: 8.7 mg/kg/injection, schedule: Q07DX002 (iv), vehicle: saline, higher = longer survival): 124 % of control
- T/C (endpoint: median survival time, dose: 8.7 mg/kg/injection, schedule: Q07DX004 (iv), vehicle: saline, higher = longer survival): 184 % of control
- T/C (endpoint: median survival time, dose: 9.0 mg/kg/injection, schedule: Q07DX003 (iv), vehicle: saline, higher = longer survival): 168 % of control
- T/C (endpoint: median survival time, dose: 9.0 mg/kg/injection, schedule: Q07DX003 (sc), vehicle: saline, higher = longer survival): 164 % of control
- T/C (endpoint: median survival time, dose: 12.0 mg/kg/injection, schedule: Q07DX002 (sc), vehicle: saline, higher = longer survival): 113 % of control
- T/C (endpoint: median survival time, dose: 13.5 mg/kg/injection, schedule: Q07DX003 (sc), vehicle: saline, higher = longer survival): 166 % of control
- T/C (endpoint: median survival time, dose: 15.5 mg/kg/injection, schedule: Q07DX003 (iv), vehicle: saline, higher = longer survival): 152 % of control
- T/C (endpoint: median tumor weight (est.), dose: 0.18 mg/kg/injection, schedule: Q07DX002 (ip), vehicle: water, higher = larger tumour): 67 % of control
- T/C (endpoint: median tumor weight (est.), dose: 0.37 mg/kg/injection, schedule: Q07DX002 (ip), vehicle: water, higher = larger tumour): 102 % of control
- T/C (endpoint: median tumor weight (est.), dose: 0.5 mg/kg/injection, schedule: Q07DX002 (ip), vehicle: water, higher = larger tumour): 108 % of control
- T/C (endpoint: median tumor weight (est.), dose: 0.5 mg/kg/injection, schedule: Q07DX003 (ip), vehicle: saline, higher = larger tumour): 101 % of control
- T/C (endpoint: median tumor weight (est.), dose: 1.0 mg/kg/injection, schedule: Q07DX003 (ip), vehicle: saline, higher = larger tumour): 101 % of control
- T/C (endpoint: median tumor weight (est.), dose: 1.25 mg/kg/injection, schedule: Q07DX002 (ip), vehicle: water, higher = larger tumour): 90 % of control
- T/C (endpoint: median tumor weight (est.), dose: 2.0 mg/kg/injection, schedule: Q07DX003 (ip), vehicle: saline, higher = larger tumour): 191 % of control
- T/C (endpoint: median tumor weight (est.), dose: 2.5 mg/kg/injection, schedule: Q07DX002 (ip), vehicle: saline, higher = larger tumour): 90 % of control
- T/C (endpoint: median tumor weight (est.), dose: 2.5 mg/kg/injection, schedule: Q07DX002 (ip), vehicle: water, higher = larger tumour): 50 % of control
- T/C (endpoint: median tumor weight (est.), dose: 3.0 mg/kg/injection, schedule: Q07DX002 (ip), vehicle: saline, higher = larger tumour): 106 % of control and 110 % of control
- T/C (endpoint: median tumor weight (est.), dose: 3.0 mg/kg/injection, schedule: Q07DX003 (iv), vehicle: saline, higher = larger tumour): 82 % of control and 83 % of control
- T/C (endpoint: median tumor weight (est.), dose: 4.0 mg/kg/injection, schedule: Q07DX003 (ip), vehicle: saline, higher = larger tumour): 85 % of control
- T/C (endpoint: median tumor weight (est.), dose: 4.75 mg/kg/injection, schedule: Q07DX002 (ip), vehicle: water, higher = larger tumour): 68 % of control
- T/C (endpoint: median tumor weight (est.), dose: 5.0 mg/kg/injection, schedule: Q07DX002 (ip), vehicle: saline, higher = larger tumour): 70 % of control
- T/C (endpoint: median tumor weight (est.), dose: 5.0 mg/kg/injection, schedule: Q07DX002 (ip), vehicle: water, higher = larger tumour): 25 % of control
- T/C (endpoint: median tumor weight (est.), dose: 6.33 mg/kg/injection, schedule: Q07DX002 (ip), vehicle: water, higher = larger tumour): 14 % of control
- T/C (endpoint: median tumor weight (est.), dose: 8.0 mg/kg/injection, schedule: Q07DX003 (ip), vehicle: saline, higher = larger tumour): 91 % of control
- T/C (endpoint: median tumor weight (est.), dose: 8.44 mg/kg/injection, schedule: Q07DX002 (ip), vehicle: water, higher = larger tumour): 53 % of control
- T/C (endpoint: median tumor weight (est.), dose: 9.0 mg/kg/injection, schedule: Q07DX002 (ip), vehicle: water, higher = larger tumour): 56 % of control
- T/C (endpoint: median tumor weight (est.), dose: 11.25 mg/kg/injection, schedule: Q07DX002 (ip), vehicle: water, higher = larger tumour): 21 % of control
- T/C (endpoint: median tumor weight (est.), dose: 12.0 mg/kg/injection, schedule: Q07DX002 (ip), vehicle: saline, higher = larger tumour): 53 % of control
- T/C (endpoint: median tumor weight (est.), dose: 12.0 mg/kg/injection, schedule: Q07DX003 (iv), vehicle: saline, higher = larger tumour): 26 % of control
- T/C (endpoint: median tumor weight (est.), dose: 15.0 mg/kg/injection, schedule: Q07DX002 (ip), vehicle: water, higher = larger tumour): 6 % of control
- T/C (endpoint: median tumor weight (est.), dose: 16.0 mg/kg/injection, schedule: Q07DX003 (ip), vehicle: saline, higher = larger tumour): 103 % of control
- T/C (endpoint: median tumor weight (est.), dose: 24.0 mg/kg/injection, schedule: Q07DX003 (iv), vehicle: saline, higher = larger tumour): 12 % of control

Compound: COc1cc(C(=O)c2cc3c(cc2C)OCO3)cc(OC)c1OC
- T/C (endpoint: median tumor weight (est.), dose: 12.5 mg/kg/injection, schedule: Q07DX002 (ip), vehicle: Klucel (hydroxypropylcellulose) (HPC), higher = larger tumour): 77 % of control
- T/C (endpoint: median tumor weight (est.), dose: 25.0 mg/kg/injection, schedule: Q07DX002 (ip), vehicle: Klucel (hydroxypropylcellulose) (HPC), higher = larger tumour): 75 % of control and 84 % of control
- T/C (endpoint: median tumor weight (est.), dose: 50.0 mg/kg/injection, schedule: Q07DX002 (ip), vehicle: Klucel (hydroxypropylcellulose) (HPC), higher = larger tumour): 112 % of control and 95 % of control
- T/C (endpoint: median tumor weight (est.), dose: 200.0 mg/kg/injection, schedule: Q07DX002 (ip), vehicle: Klucel (hydroxypropylcellulose) (HPC), higher = larger tumour): 79 % of control and 102 % of control

Source: PubChem BioAssay AID212 (DTP/NCI, 2004)
